We go through four molecules from EPA's ToxValDB 9.5.

For orientation: LOAEL means the lowest tested level that showed an adverse finding. For orientation: NOAEL means the highest dose or exposure tested at which no adverse effect was seen.

Each structure is given as a SMILES string. “And” between values parts separate entries of the source, which are not always exact repeats. Equal values may be shown once.

This data set has as its system Rattus norvegicus.
[1] abbreviates: short-term, duration: 4 weeks, inhalation, F, Wistar, Adrenal: Adrenal Cortex, Minimal Diffuse Hypertrophy + Blood: Calcium (CA), Blood + Blood: Chloride (CL), Blood + Blood: Inorganic ….
[2] abbreviates: short-term, duration: 4 weeks, inhalation, F, Wistar, Blood: Albumin/Globulin (A/G) Ratio + Blood: Globulin (G), Blood + Blood: Glucose (GLU), Blood + Blood: Potassium (K), Blood + Kidney: Urea….
[3] abbreviates: short-term, duration: 4 weeks, inhalation, M, Wistar, Adrenal: Adrenal Cortex, Minimal Diffuse Hypertrophy + Blood: Calcium (CA), Blood + Blood: Total Protein (TP), Blood + Liver: Aspartate ….
Setting [4] is: short-term, duration: 4 weeks, inhalation, M, Wistar, Blood: Chloride (CL), Blood + Blood: Glucose (GLU), Blood + Blood: Hematocrit (HCT) + Blood: Hemoglobin (HGB) + Blood: Red Blood Cell (RBC….
Where [5] appears, read: short-term, duration: 28 days, oral, gavage, F, Sprague-Dawley, Blood: Hematocrit (HCT) + Blood: Hemoglobin (HGB) + Blood: Red Blood Cell (RBC) + Blood: White Blood Cell (WBC) + Kidney: Total Protein (TP….
Setting [6] is: short-term, duration: 28 days, oral, gavage, F, Sprague-Dawley, Blood: Lymphocyte + Blood: Mean Corpuscular Volume (MCV) + Blood: Monocytes + Central Nervous System: Spontaneous Locomotion + Intestine: ….
[7] abbreviates: short-term, duration: 28 days, oral, gavage, F, Sprague-Dawley, Blood: Prothrombin Time (PT) + Renal: Albumin (A), Urine.
Where [8] appears, read: short-term, duration: 28 days, oral, gavage, M, Sprague-Dawley, Blood: Hematocrit (HCT) + Blood: Hemoglobin (HGB) + Blood: White Blood Cell (WBC) + Central Nervous System: Spontaneous Locomotion + Hair/….
Setting [9] is: short-term, duration: 28 days, oral, gavage, M, Sprague-Dawley, Blood: Mean Cell Hemoglobin (MCH) + Blood: Mean Corpuscular Hemoglobin Concentration (MCHC) + Blood: Mean Corpuscular Volume (MCV) + Blood: ….
The mark [10] stands for this setting: short-term, duration: 28 days, oral, gavage, M, Sprague-Dawley, Hair/Fur: Alopecia + Lung: Respiration Rate.
The mark [11] stands for this setting: short-term, duration: 28 days, oral, gavage, M, Sprague-Dawley, Liver: Liver Weight, Relative.
[12] abbreviates: developmental, duration: 14 days, oral, gavage, M/F, Hsd. Han: WIST, generation: F1, F1: Developmental: Bone: Skeletal Variations + F1: Developmental: Placenta: Placenta Weight, Absolute + F1: Developmental: Placenta: ….
Setting [13] is: developmental, duration: 14 days, oral, gavage, M/F, Wistar Han, generation: F1, F1: Placenta: Placenta Weight, Absolute + F1: Whole Body: Body Weight, Fetal + F1: Whole Body: Fetal Skeletal Variations.
Setting [14] is: reproduction developmental, duration: 14 days, oral, gavage, F, Hsd. Han: WIST, generation: P0, P0: Developmental: Uterus: Implantation + P0: Developmental: Uterus: Post-Implantation Loss + P0: Developmental: Uterus: Pre-Implantation ….
Setting [15] is: reproduction developmental, duration: 14 days, oral, gavage, F, Wistar Han, generation: P0, P0: Kidney: Necropsy, Kidney Observation + P0: Small Intestine: Necropsy, Small Intestine Observation + P0: Stomach: Necropsy, Stomach ….
[16] abbreviates: short-term, duration: 28 days, oral, gavage, F, Sprague-Dawley, Adrenal: Adrenal Gland Weight, Absolute + Adrenal: Adrenal Gland Weight, Relative.
Where [17] appears, read: short-term, duration: 28 days, oral, gavage, M/F, Sprague-Dawley, Liver: Liver Histopathology.
The mark [18] stands for this setting: short-term, duration: 28 days, oral, gavage, M, Sprague-Dawley, Adrenal: Adrenal Gland Weight, Absolute + Adrenal: Adrenal Gland Weight, Relative.

Consider `FC(F)(I)C(F)(F)C(F)(F)C(F)(F)C(F)(F)C(F)(F)I` [1,6-Diiodoperfluorohexane], for which the LOAEL is, setting by setting: under setting [1], 45.1 mg/m3; under setting [2], 14.4 mg/m3; (short-term, duration: 4 weeks, inhalation, F, Wistar, Blood: Cholesterol (CHOL), Total, Blood + Blood: Hematocrit (HCT) + Blood: Hemoglobin (HGB) + Blood: Red Blood Cell (RBC) + Brain: Brain …) 4.48 mg/m3 and 4.49 mg/m3; under setting [3], 45.1 mg/m3; (short-term, duration: 4 weeks, inhalation, M, Wistar, Adrenal: Adrenal Gland Weight, Relative + Blood: Globulin (G), Blood + Blood: Inorganic Phosphorous (PHOS), Blood + Blood: Reticulocytes + …) 4.48 mg/m3 and 4.49 mg/m3; under setting [4], 14.4 mg/m3. Also, the LOAEL is, setting by setting: (short-term, duration: 28 days, oral, gavage, F, Sprague-Dawley, Blood: Activated Partial Thromboplastin Time (APTT) + Blood: Albumin/Globulin (A/G) Ratio + Blood: Mean Cell Hemoglobin (MCH) + Blood: Mean …) 1 mg/kg-day; under setting [5], 3 mg/kg-day; under setting [6], 10 mg/kg-day; under setting [7], 20 mg/kg-day; (short-term, duration: 28 days, oral, gavage, M, Sprague-Dawley, Adrenal: Adrenal Gland Weight, Relative + Blood: Activated Partial Thromboplastin Time (APTT) + Blood: Albumin/Globulin (A/G) Ratio + Brain…) 1 mg/kg-day; under setting [8], 3 mg/kg-day. The LOAEL by setting is: under setting [9], 10 mg/kg-day; under setting [10], 20 mg/kg-day. The NOAEL by setting is: under setting [1], 14.4 mg/m3; (short-term, duration: 4 weeks, inhalation, F, Wistar, Adrenal: Adrenal Gland Weight, Relative + Basophils + Blood: Activated Partial Thromboplastin Time (APTT) + Blood: Mean Corpuscular …) 45.1 mg/m3; under setting [2], 4.48 mg/m3 and 4.49 mg/m3; under setting [3], 14.4 mg/m3; (short-term, duration: 4 weeks, inhalation, M, Wistar, Basophils + Blood: Activated Partial Thromboplastin Time (APTT) + Blood: Albumin/Globulin (A/G) Ratio + Blood: Mean Corpuscular Hemoglobin (…) 45.1 mg/m3; under setting [4], 4.48 mg/m3 and 4.49 mg/m3. The NOAEL runs as follows: (short-term, duration: 28 days, oral, gavage, F, Sprague-Dawley, Adrenal: Adrenal Gland Histopathology + Adrenal: Adrenal Gland Weight, Relative + Blood: Globulin (G) + Blood: Phosphorous (inorganic) (PHOS…) 20 mg/kg-day; under setting [5], 1 mg/kg-day; under setting [6], 3 mg/kg-day; under setting [7], 10 mg/kg-day; (short-term, duration: 28 days, oral, gavage, M, Sprague-Dawley, Adrenal: Adrenal Gland Histopathology + Blood: Globulin (G) + Blood: Lymphocyte + Blood: Monocytes + Blood: Platelet Count (PLT) + Blood: …) 20 mg/kg-day; under setting [8], 1 mg/kg-day. In addition, the NOAEL by setting is: under setting [9], 3 mg/kg-day; under setting [10], 10 mg/kg-day.

With `FC(F)C(F)(F)C(F)(F)C(F)(F)C(F)(F)C(F)(F)F` [1H-Perfluorohexane], the NOAEL (developmental, duration: 20 days, parental, M/F, Wistar, generation: F1, F1: Thyroid: Thyroxine (T4) + F1: Trunk: Anogenital Distance + F1: Whole Body: Body Weight, Fetal + F1: Whole Body: Clinical Observations + …) was 1000 mg/kg-day; the no observed adverse effect level (NOAEL) (reproduction developmental, duration: 20 days, parental, M, Wistar, generation: F1, F1: Trunk: Areola/Nipple Retention) was 1000 mg/kg-day; the NOAEL (reproduction developmental, duration: 29 days, oral, gavage, M, Wistar, generation: P0, P0: Epididymis: Epididymis Weight, Absolute + P0: Prostate: Prostate Weight, Absolute + P0: Seminal Vesicle: Seminal Vesicles Weight (w/o …) was determined as 1000 mg/kg-day; the NOAEL (reproduction developmental, duration: 29 days, oral, gavage, M, Wistar, generation: P0, P0: Peripheral Nervous System: Functional Observational Battery Tests + P0: Thyroid: Thyroid Gland Weight, Absolute + P0: Thyroid: Thyroxine…) was 1000 mg/kg-day; the NOAEL (reproduction developmental, duration: 64 days, oral, gavage, F, Wistar, generation: P0, P0: Heart: Heart Gross Pathology + P0: Heart: Heart Histopathology + P0: Kidney: Kidney Gross Pathology + P0: Kidney: Kidney Histopathology…) stood at 1000 mg/kg-day; the NOAEL (reproduction developmental, duration: 64 days, oral, gavage, F, Wistar, generation: P0, P0: Testis: Ovary Histopathology + P0: Uterus: Estrous Cyclicity + P0: Uterus: Implantation + P0: Whole Body: Conception Index + P0: Whole …) came out at 1000 mg/kg-day. The NOAEL turned out to be 1000 mg/kg-day (short-term, duration: 28 days, oral, gavage, F, Sprague-Dawley, Adrenal: Adrenal Gland Histopathology + Adrenal: Adrenal Gland Weight, Relative + Blood: Hematology, Unspecified + Brain: Brain Weight, …); 1000 mg/kg-day (short-term, duration: 28 days, oral, gavage, M, Sprague-Dawley, Adrenal: Adrenal Gland Histopathology + Adrenal: Adrenal Gland Weight + Blood: Hematology, Unspecified + Brain: Brain Weight, Relative + …); 200 mg/kg-day under setting [11]. For the same molecule, the LOAEL under setting [11] came to 1000 mg/kg-day.

With `C=C(C)C(=O)OCCC(F)(F)C(F)(F)C(F)(F)C(F)(F)C(F)(F)C(F)(F)F` [2-(Perfluorohexyl)ethyl methacrylate], the LOAEL worked out at 1000 mg/kg-day under setting [12] and 1000 mg/kg-day under setting [14]. The no observed adverse effect level (NOAEL) reads like this: under setting [12], 320 mg/kg-day; under setting [14], 320 mg/kg-day; (reproduction developmental, duration: 14 days, oral, gavage, F, Hsd. Han: WIST, generation: P0, P0: Reproductive: Ovary: Corpora Lutea) 1000 mg/kg-day. The LEL amounted to 1000 mg/kg-day under setting [13]; 1000 mg/kg-day under setting [15]; 25 mg/kg-day (short-term, duration: 28 days, oral, gavage, F, Crl:CD(SD), Liver: Liver Weight, Absolute + Liver: Liver Weight, Relative + Teeth: Decreased Iron Pigment, Ameloblasts (28 d) + Teeth: Teeth, Mottled (…); 25 mg/kg-day (short-term, duration: 28 days, oral, gavage, M, Crl:CD(SD), Kidney: Kidney Weight, Relative + Teeth: Decreased Iron Pigment, Ameloblasts (28 d) + Teeth: Teeth, Mottled (42 d)). Moreover, the NEL by setting is: under setting [13], 320 mg/kg-day; (developmental, duration: 14 days, oral, gavage, M/F, Wistar Han, generation: F1, F1: Placenta: Placenta Weight, Relative + F1: Uterus: Fetuses, Dead + F1: Uterus: Fetuses, Live + F1: Whole Body: Fetal External …) 1000 mg/kg-day; under setting [15], 320 mg/kg-day; (reproduction developmental, duration: 14 days, oral, gavage, F, Wistar Han, generation: P0, P0: Ovary: Corpora Lutea + P0: Uterus: Implantation + P0: Uterus: Post-Implantation Loss + P0: Uterus: Pre-Implantation Loss + P0: Whole …) 1000 mg/kg-day; (short-term, duration: 28 days, oral, gavage, F, Crl:CD(SD), Adrenal: Adrenal Gland Weight, Absolute + Adrenal: Adrenal Gland Weight, Absolute, Recovery + Adrenal: Adrenal Gland Weight, Relative + …) 25 mg/kg-day; (short-term, duration: 28 days, oral, gavage, F, Crl:CD(SD), Liver: Liver Weight, Absolute + Liver: Liver Weight, Relative + Teeth: Decreased Iron Pigment, Ameloblasts (28 d)) 5 mg/kg-day. Further, the NEL (short-term, duration: 28 days, oral, gavage, M, Crl:CD(SD), Adrenal: Adrenal Gland Weight, Absolute + Adrenal: Adrenal Gland Weight, Absolute, Recovery + Adrenal: Adrenal Gland Weight, Relative + …) was found to be 25 mg/kg-day and the NEL (short-term, duration: 28 days, oral, gavage, M, Crl:CD(SD), Kidney: Kidney Weight, Relative + Teeth: Decreased Iron Pigment, Ameloblasts (28 d)) was determined as 5 mg/kg-day.

`CCOC(F)(C(F)(F)C(F)(F)C(F)(F)F)C(F)(C(F)(F)F)C(F)(F)F` (stereo not drawn) [3-Ethoxyperfluoro(2-methylhexane)]: the NOAEL was 1000 mg/kg-day (developmental, duration: 26 days, parental, M/F, Sprague-Dawley, generation: F1, F1: Whole Body: Clinical Observations + F1: Whole Body: Litter Size + F1: Whole Body: Necropsy Appeared Normal + F1: Whole Body: Pup Body …); 1000 mg/kg-day (reproduction developmental, duration: 2 weeks, oral, gavage, F, Sprague-Dawley, generation: P0, P0: Ovary: Ovary, Non-Neoplastic Lesions + P0: Uterus: Estrous Cycle + P0: Uterus: Implantation + P0: Whole Body: Clinical Observations + P0…); 1000 mg/kg-day (reproduction developmental, duration: 2 weeks, oral, gavage, M, Sprague-Dawley, generation: P0, P0: Epididymis: Epididymis Weight, Absolute + P0: Epididymis: Epididymis Weight, Relative + P0: Epididymis: Epididymis, Non-Neoplastic …); 200 mg/kg-day under setting [16]; 1000 mg/kg-day (short-term, duration: 28 days, oral, gavage, F, Sprague-Dawley, Ovary: Ovary Weight, Absolute + Ovary: Ovary Weight, Relative + Spleen: Spleen Weight, Absolute); 1000 mg/kg-day (short-term, duration: 28 days, oral, gavage, M/F, Sprague-Dawley, Blood: Clinical Chemistry, Unspecified + Kidney: Urinalysis, Unspecified + Whole Body: Body Weight Change + Whole Body: Clinical …). Further, the no observed adverse effect level (NOAEL) is 200 mg/kg-day under setting [17] and 200 mg/kg-day under setting [18]. The LOAEL under setting [16] came out at 1000 mg/kg-day; the LOAEL (short-term, duration: 28 days, oral, gavage, F, Sprague-Dawley, Spleen: Spleen Weight, Relative) worked out at 40 mg/kg-day; the LOAEL under setting [17] came out at 1000 mg/kg-day; the LOAEL under setting [18] was 1000 mg/kg-day; the LOAEL (short-term, duration: 28 days, oral, gavage, M, Sprague-Dawley, Spleen: Spleen Weight, Absolute + Spleen: Spleen Weight, Relative) stood at 40 mg/kg-day.
